Reference: ChEMBL document CHEMBL1649192, “Dynamics of malaria drug resistance patterns in the Amazon basin region following changes in Peruvian national treatment policy for uncomplicated malaria” (Antimicrob Agents Chemother, 2009)

Experiments:
[1] = tested on: Plasmodium falciparum; test: Antimicrobial activity against Plasmodium falciparum harboring NGFSDD genotype after 72 hrs by SYBR green I assay
[2] = tested on: Plasmodium falciparum; test: Antimicrobial activity against Plasmodium falciparum harboring CVMNT genotype after 72 hrs by SYBR green I assay
[3] = tested on: Plasmodium falciparum; test: Antimicrobial activity against Plasmodium falciparum harboring SVMNT genotype after 72 hrs by SYBR green I assay

Compound: OC(c1cc(C(F)(F)F)nc2c(C(F)(F)F)cccc12)C1CCCCN1 (stereo not drawn) [MEFLOQUINE]
- IC50 [1]: 21 nM

Compound: C=C[C@H]1CN2CC[C@H]1C[C@H]2[C@H](O)c1ccnc2ccc(OC)cc12 [QUININE]
- IC50 [2]: 66 nM
- IC50 [3]: 70 nM
